In general, inhibition in vivo refers to the share of the control response that was lost under treatment.

Calls of active or inactive are those of the source. No cut-off for these calls is given here.

Format in all cases: functional
In assay [1] the test system is Syphacia obvelata. The experiment in a line: Anthelmintic activity against Syphacia obvelata infected in mouse assessed as reduction in worm burden at 300 mg/kg, po bid for 5 days. The settings on record: 120 h.
Assay [2] has as its system Syphacia obvelata. The experiment in a line: Anthelmintic activity against Syphacia obvelata infected in mouse assessed as reduction in worm burden at 100 mg/kg, po bid for 5 days. The settings on record: 120 h.
The subject of assay [3] is Syphacia obvelata. The experiment in a line: Anthelmintic activity against Syphacia obvelata infected in mouse assessed as reduction in worm burden at 50 mg/kg, po bid for 5 days. The settings on record: for inhibition in vivo at 50 mg/kg: 120 h.
The subject of assay [4] is Syphacia obvelata. The experiment in a line: Anthelmintic activity against Syphacia obvelata infected in mouse assessed as reduction in worm burden at 25 mg/kg, po bid for 5 days. The settings on record: for inhibition in vivo at 25 mg/kg: 120 h.
The test system of assay [5] is Syphacia obvelata. The experiment in a line: Anthelmintic activity against Syphacia obvelata infected in mouse assessed as reduction in worm burden at 10 mg/kg, po bid for 5 days.

On to `O=C(/C=C/c1ccc(Cl)cc1)NN1CC(=O)NC1=O`, for which the inhibition in vivo at 300 mg/kg in the assay with Syphacia obvelata [1] was determined as 100%. Further, the inhibition in vivo at 100 mg/kg with Syphacia obvelata [2] was determined as 97%. In the assay with Syphacia obvelata [3], the inhibition in vivo at 50 mg/kg stood at 52%. The inhibition result in the assay with Syphacia obvelata [4] was “inactive”.
Regarding `C1CNCCN1.O=C(O)CCCCC(=O)O`, the inhibition in vivo at 300 mg/kg in the assay on Syphacia obvelata [1] was determined as 96%. In the assay on Syphacia obvelata [2], the inhibition in vivo at 100 mg/kg came out at 42%. Moreover, the inhibition result in the assay with Syphacia obvelata [3] was “inactive”.
Consider `O=C(/C=C/c1cccc(F)c1)NN1CC(=O)NC1=O`, for which the inhibition in vivo at 300 mg/kg with Syphacia obvelata [1] was 100%. Also, the inhibition in vivo at 100 mg/kg with Syphacia obvelata [2] was 77%. Also, the inhibition result in the assay on Syphacia obvelata [3] is “inactive”.
The corresponding values for `Cc1cc(/C=C/C(=O)NN2CC(=O)NC2=O)ccc1Br` are 100%, 81% and “inactive”.
`CCc1ccc(/C=C/C(=O)NN2CC(=O)NC2=O)cc1Cl`: the inhibition in vivo at 300 mg/kg in the assay on Syphacia obvelata [1] stood at 100%. For the same molecule, the inhibition in vivo at 100 mg/kg with Syphacia obvelata [2] amounted to 87%. Besides, the inhibition entry with Syphacia obvelata [3] is “inactive”.
Consider `N#Cc1ccc(/C=C/C(=O)NN2CC(=O)NC2=O)cc1`, for which the inhibition in vivo at 300 mg/kg in the assay with Syphacia obvelata [1] is 100%. The inhibition in vivo at 100 mg/kg with Syphacia obvelata [2] stood at 100%. Further, in the assay with Syphacia obvelata [3], the inhibition in vivo at 50 mg/kg turned out to be 100%. In the assay on Syphacia obvelata [4], the inhibition in vivo at 25 mg/kg worked out at 97%. In addition, in the assay on Syphacia obvelata [5], the inhibition result was “inactive”.
As for `O=C(/C=C/c1ccc(Cl)c(C(F)(F)F)c1)NN1CC(=O)NC1=O`, the inhibition in vivo at 300 mg/kg in the assay with Syphacia obvelata [1] amounted to 70%. For the same molecule, the inhibition in vivo at 100 mg/kg in the assay with Syphacia obvelata [2] was 76%. The inhibition result with Syphacia obvelata [3] was “inactive”.
Regarding `O=C(/C=C/c1ccc(Cl)c(Cl)c1)NN1CC(=O)NC1=O`, the inhibition in vivo at 300 mg/kg in the assay on Syphacia obvelata [1] came to 100%. Further, the inhibition in vivo at 100 mg/kg with Syphacia obvelata [2] amounted to 100%. For the same molecule, in the assay with Syphacia obvelata [3], the inhibition in vivo at 50 mg/kg amounted to 100%. The inhibition in vivo at 25 mg/kg with Syphacia obvelata [4] is 51%. In the assay with Syphacia obvelata [5], the inhibition entry was “inactive”.
Turning to `O=C(/C=C/c1ccc(F)c(Cl)c1)NN1CC(=O)NC1=O`, the inhibition in vivo at 300 mg/kg in the assay on Syphacia obvelata [1] was 100%. Moreover, the inhibition in vivo at 100 mg/kg in the assay with Syphacia obvelata [2] was found to be 100%. For the same molecule, the inhibition in vivo at 50 mg/kg in the assay with Syphacia obvelata [3] was found to be 87%. Moreover, the inhibition result in the assay on Syphacia obvelata [4] is “inactive”.
As for `Cc1ccc(/C=C/C(=O)NN2CC(=O)NC2=O)cc1Cl`, in the assay with Syphacia obvelata [1], the inhibition in vivo at 300 mg/kg amounted to 99%. For the same molecule, the inhibition in vivo at 100 mg/kg in the assay on Syphacia obvelata [2] was determined as 97%. For the same molecule, in the assay on Syphacia obvelata [3], the inhibition in vivo at 50 mg/kg came to 100%. Further, the inhibition in vivo at 25 mg/kg in the assay with Syphacia obvelata [4] came out at 87%. Also, the inhibition in vivo at 10 mg/kg in the assay with Syphacia obvelata [5] (120 h) worked out at 34%.
As for `O=C(/C=C/c1ccc(F)cc1)NN1CC(=O)NC1=O`, in the assay with Syphacia obvelata [1], the inhibition in vivo at 300 mg/kg is 100%. Besides, in the assay with Syphacia obvelata [2], the inhibition in vivo at 100 mg/kg was 69%. In the assay with Syphacia obvelata [3], the inhibition in vivo at 50 mg/kg was 67%. Further, the inhibition result in the assay with Syphacia obvelata [4] is “inactive”.
`O=C(/C=C/c1ccc2c(c1)OCO2)NN1CC(=O)NC1=O`: the inhibition in vivo at 300 mg/kg with Syphacia obvelata [1] came to 100%. Also, the inhibition in vivo at 100 mg/kg in the assay with Syphacia obvelata [2] was found to be 88%. Further, in the assay with Syphacia obvelata [3], the inhibition result was “inactive”.
On to `O=C(/C=C/c1ccccc1)NN1CC(=O)NC1=O`, for which the inhibition in vivo at 300 mg/kg in the assay on Syphacia obvelata [1] came to 86%. The inhibition in vivo at 100 mg/kg in the assay with Syphacia obvelata [2] stood at 75%. Further, the inhibition entry in the assay on Syphacia obvelata [3] is “inactive”.
